The record followed here is patent publication US4082881A, “Topical and other type pharmaceutical formulations containing isosorbide carrier” (E. R. Squibb & Sons, Inc., priority 1976, dated 1978).

Broadly, the solubility is the dissolved amount per volume that the medium holds.

Where only a bound is given, the exact number is not on record here.

Data set [1] in a line: solubility of the steroid in water and in hydrocarbon and other vehicles. In kind it is physicochemical.
Data set [2] can be described thus: solubility of econazole nitrate in water and in the isosorbide preparations. The data set is classed as physicochemical.

With `CC1(C)O[C@@H]2C[C@H]3[C@@H]4CCC5=CC(=O)CC[C@]5(C)[C@@]4(F)[C@@H](O)C[C@]3(C)[C@]2(C(=O)CCl)O1` [21-chloro-9α-fluoro-Δ^4-pregnene-11β,16α,17α-triol-3,20-dione 16,17-acetonide], the “solubility in hydrocarbon vehicles” value in data set [1] (mineral oil, petrolatum or polyethylene gelled mineral oil, compared with water) is “even less soluble”. This compound also registered a solubility in data set [1] (water) of less than 5 µg/mL. The “solubility in water-soluble emulsifiers and oil liquids or emollients” value in data set [1] (water-soluble emulsifiers and oil liquids or emollients suggested for ointments, gels, creams and lotions) was “undesirably low solubility”.
Regarding `Clc1ccc(COC(Cn2ccnc2)c2ccc(Cl)cc2Cl)cc1` (centres unmarked) [econazole nitrate], the “solubilized and available econazole nitrate relative to a conventional lotion or cream” value in data set [2] (in these preparations (Econazole Cream 0.5%, Econazole Lotion 0.5%) vs conventional lotion or cream, about) is reported as no less than 5 times. Further, the solubility in data set [2] (water) was roughly 1000 µg/mL.
